Experimental data: PubChem BioAssay (NCI)
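Here, GI50 denotes the concentration required for 50% inhibition of growth. TGI is the concentration that stops growth completely.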

What was measured:
Assay in all cases: inhibition of tumour cell growth, NCI panel, 384-well format
NCI-H23 lung = system: NCI-H23 lung
U251 glioblastoma = system: U251 glioblastoma
HS 578T breast = system: HS 578T breast
EKVX NSCLC = system: EKVX NSCLC
T-47D breast = system: T-47D breast
HCC-2998 colon = system: HCC-2998 colon
RPMI-8226 leukemia = system: RPMI-8226 leukemia
MOLT-4 leukemia = system: MOLT-4 leukemia
K-562 leukemia = system: K-562 leukemia
NCI-H322M lung = system: NCI-H322M lung
786-0 renal = system: 786-0 renal
IGROV1 ovarian = system: IGROV1 ovarian
DU-145 prostate = system: DU-145 prostate
MDA-MB-468 breast = system: MDA-MB-468 breast
NCI-H522 lung = system: NCI-H522 lung
TK-10 renal = system: TK-10 renal
SK-MEL-5 melanoma = system: SK-MEL-5 melanoma
SN12C renal = system: SN12C renal
OVCAR-4 ovarian = system: OVCAR-4 ovarian
UACC-257 melanoma = system: UACC-257 melanoma
NCI/ADR-RES ovarian = system: NCI/ADR-RES ovarian
HT29 colon = system: HT29 colon
MDA-MB-231 breast = system: MDA-MB-231 breast
SF-295 CNS = system: SF-295 CNS
RXF 393 renal = system: RXF 393 renal
SNB-75 CNS = system: SNB-75 CNS
SNB-19 CNS = system: SNB-19 CNS
COLO 205 colon = system: COLO 205 colon
SF-268 CNS = system: SF-268 CNS
MCF7 breast = system: MCF7 breast
LOX IMVI melanoma = system: LOX IMVI melanoma
NCI-H460 NSCLC = system: NCI-H460 NSCLC
OVCAR-5 ovarian = system: OVCAR-5 ovarian
OVCAR-3 ovarian = system: OVCAR-3 ovarian
SR leukemia = system: SR leukemia
KM12 colon = system: KM12 colon
NCI-H226 lung = system: NCI-H226 lung
SK-MEL-28 melanoma = system: SK-MEL-28 melanoma
UO-31 renal = system: UO-31 renal
CAKI-1 renal = system: CAKI-1 renal
HCT-15 colon = system: HCT-15 colon
SF-539 CNS = system: SF-539 CNS
UACC-62 melanoma = system: UACC-62 melanoma
A549 NSCLC = system: A549 NSCLC
SK-MEL-2 melanoma = system: SK-MEL-2 melanoma
MALME-3M melanoma = system: MALME-3M melanoma
SW-620 colon = system: SW-620 colon

SMILES: Cc1cc(Nc2ncc(Cl)c(Nc3ccccc3S(=O)(=O)C(C)C)n2)c(OC(C)C)cc1C1CCNCC1
- GI50 (NCI-H23 lung): 1270 nM
- TGI (NCI-H23 lung): 2550 nM
- GI50 (U251 glioblastoma): 1780 nM
- TGI (U251 glioblastoma): 3190 nM
- GI50 (HS 578T breast): 1640 nM
- TGI (HS 578T breast): 3000 nM
- GI50 (EKVX NSCLC): 1290 nM
- TGI (EKVX NSCLC): 2570 nM
- GI50 (T-47D breast): 1400 nM
- TGI (T-47D breast): 2710 nM
- GI50 (HCC-2998 colon): 202 nM
- TGI (HCC-2998 colon): 552 nM
- GI50 (RPMI-8226 leukemia): 720 nM
- TGI (RPMI-8226 leukemia): 1980 nM
- GI50 (MOLT-4 leukemia): 711 nM
- TGI (MOLT-4 leukemia): 1980 nM
- GI50 (K-562 leukemia): 978 nM
- TGI (K-562 leukemia): 2150 nM
- GI50 (NCI-H322M lung): 1320 nM
- TGI (NCI-H322M lung): 2600 nM
- GI50 ([…]-0 renal): 1260 nM
- TGI (786-0 renal): 2520 nM
- GI50 (IGROV1 ovarian): 1270 nM
- TGI (IGROV1 ovarian): 2580 nM
- GI50 (DU-145 prostate): 1560 nM
- TGI (DU-145 prostate): 2920 nM
- GI50 (MDA-MB-468 breast): 1100 nM
- TGI (MDA-MB-468 breast): 2340 nM
- GI50 (NCI-H522 lung): 1760 nM
- TGI (NCI-H522 lung): 3150 nM
- GI50 (TK-10 renal): 1570 nM
- TGI (TK-10 renal): 2920 nM
- GI50 (SK-MEL-5 melanoma): 668 nM
- TGI (SK-MEL-5 melanoma): 1280 nM
- GI50 (SN12C renal): 1750 nM
- TGI (SN12C renal): 3140 nM
- GI50 (OVCAR-4 ovarian): 1990 nM
- TGI (OVCAR-4 ovarian): 3420 nM
- GI50 (UACC-257 melanoma): 777 nM
- TGI (UACC-257 melanoma): 1530 nM
- GI50 (NCI/ADR-RES ovarian): 1540 nM
- TGI (NCI/ADR-RES ovarian): 2890 nM
- GI50 (HT29 colon): 408 nM
- TGI (HT29 colon): 1460 nM
- GI50 (MDA-MB-231 breast): 1480 nM
- TGI (MDA-MB-231 breast): 2810 nM
- GI50 (SF-295 CNS): 1700 nM
- TGI (SF-295 CNS): 3090 nM
- GI50 (RXF 393 renal): 1900 nM
- TGI (RXF 393 renal): 3310 nM
- GI50 (SNB-75 CNS): 1860 nM
- TGI (SNB-75 CNS): 3270 nM
- GI50 (SNB-19 CNS): 1830 nM
- TGI (SNB-19 CNS): 3240 nM
- GI50 (COLO 205 colon): 663 nM
- TGI (COLO 205 colon): 1900 nM
- GI50 (SF-268 CNS): 1700 nM
- TGI (SF-268 CNS): 3080 nM
- GI50 (MCF7 breast): 297 nM
- TGI (MCF7 breast): 1300 nM
- GI50 (LOX IMVI melanoma): 1280 nM
- TGI (LOX IMVI melanoma): 2560 nM
- GI50 (NCI-H460 NSCLC): 1080 nM
- TGI (NCI-H460 NSCLC): 2370 nM
- GI50 (OVCAR-5 ovarian): 1510 nM
- TGI (OVCAR-5 ovarian): 2850 nM
- GI50 (OVCAR-3 ovarian): 1590 nM
- TGI (OVCAR-3 ovarian): 2960 nM
- GI50 (SR leukemia): 13.9 nM
- TGI (SR leukemia): 26.1 nM
- GI50 (KM12 colon): 1450 nM
- TGI (KM12 colon): 2780 nM
- GI50 (NCI-H226 lung): 929 nM
- TGI (NCI-H226 lung): 2240 nM
- GI50 (SK-MEL-28 melanoma): 1540 nM
- TGI (SK-MEL-28 melanoma): 2880 nM
- GI50 (UO-31 renal): 1690 nM
- TGI (UO-31 renal): 3070 nM
- GI50 (CAKI-1 renal): 1750 nM
- TGI (CAKI-1 renal): 3140 nM
- GI50 (HCT-15 colon): 648 nM
- TGI (HCT-15 colon): 1760 nM
- GI50 (SF-539 CNS): 1870 nM
- TGI (SF-539 CNS): 3290 nM
- GI50 (UACC-62 melanoma): 1040 nM
- TGI (UACC-62 melanoma): 2320 nM
- GI50 (A549 NSCLC): 1400 nM
- TGI (A549 NSCLC): 2730 nM
- GI50 (SK-MEL-2 melanoma): 1020 nM
- TGI (SK-MEL-2 melanoma): 2190 nM
- GI50 (MALME-3M melanoma): 551 nM
- TGI (MALME-3M melanoma): 1720 nM
- GI50 (SW-620 colon): 1060 nM
- TGI (SW-620 colon): 2330 nM
